Where two headings read alike, the source gives them in different places. Some results are limits rather than exact numbers.

Eleven compounds from patent US7635716B2, “Substituted cyclopentanes or cyclopentanones as therapeutic agents” (Allergan, Inc., priority 2005, dated 2009) can be followed below.

In one data set the target is T1, hEP4/Gqs5 (Homo sapiens, UniProt P35408).
T1 construct: expressed in transfected cells; host or cells: HEK-293(EBNA) cells
The experiment in a line: FLIPR calcium signal, HEK-293(EBNA) cells. The data set is classed as cell-based. Here is the method:
(§1) HEK-293(EBNA) cells, stably expressing one type or subtype of recombinant human prostaglandin receptors (prostaglandin receptors expressed: hDP/Gqs5; hEP1; hEP2/Gqs5; hEP3A/Gqi5; hEP4/Gqs5; hFP; hIP; hTP), were cultured in 100 mm culture dishes in high-glucose DMEM medium containing 10% fetal bovine serum, 2 mM 1-glutamine, 250 μg/ml geneticin (G418) and 200 μg/ml hygromycin B as selection markers, and 100 units/ml penicillin G, 100 μg/ml streptomycin and 0.25 μg/ml amphotericin B.
(§2) Cells were seeded at a density of 5×10^4 cells per well in Biocoat® Poly-D-lysine-coated black-wall, clear-bottom 96-well plates (Becton-Dickinson) and allowed to attach overnight in an incubator at 37° C. Cells were then washed two times with HBSS-HEPES buffer (Hanks Balanced Salt Solution without bicarbonate and phenol red, 20 mM HEPES, pH 7.4) using a Denley Cellwash plate washer (Labsystems). After 45 minutes of dye-loading in the dark, using the calcium-sensitive dye Fluo-4 AM at a final concentration of 2 μM, plates were washed four times with HBSS-HEPES buffer to remove excess dye leaving 100 μl in each well. Plates were re-equilibrated to 37° C. for a few minutes.
(§3) Cells were excited with an Argon laser at 488 nm, and emission was measured through a 510-570 nm bandwidth emission filter (FLIPR™, Molecular Devices, Sunnyvale, Calif.). Drug solution was added in a 50 μl volume to each well to give the desired final concentration. The peak increase in fluorescence intensity was recorded for each well. On each plate, four wells each served as negative (HBSS-HEPES buffer) and positive controls (standard agonists: BW245C (hDP); PGE2 (hEP1; hEP2/Gqs5; hEP3A/Gqi5; hEP4/Gqs5); PGF2. (hFP); carbacyclin (hIP); U-46619 (hTP), depending on receptor). The peak fluorescence change in each drug-containing well was then expressed relative to the controls.
(§4) Compounds were tested in a high-throughput (HTS) or concentration-response (CoRe) format. In the HTS format, forty-four compounds per plate were examined in duplicates at a concentration of 10^−5 M. To generate concentration-response curves, four compounds per plate were tested in duplicates in a concentration range between 10^−5 and 10^−11 M. The duplicate values were averaged. In either, HTS or CoRe format each compound was tested on at least 3 separate plates using cells from different passages to give an n≧3.

For a further data set, the target named is T2, hEP2/Gqs5 (Homo sapiens, UniProt P43116).
T2 construct: expressed in transfected cells; host or cells: HEK-293(EBNA) cells
T2 sequence (P43116 whole entry): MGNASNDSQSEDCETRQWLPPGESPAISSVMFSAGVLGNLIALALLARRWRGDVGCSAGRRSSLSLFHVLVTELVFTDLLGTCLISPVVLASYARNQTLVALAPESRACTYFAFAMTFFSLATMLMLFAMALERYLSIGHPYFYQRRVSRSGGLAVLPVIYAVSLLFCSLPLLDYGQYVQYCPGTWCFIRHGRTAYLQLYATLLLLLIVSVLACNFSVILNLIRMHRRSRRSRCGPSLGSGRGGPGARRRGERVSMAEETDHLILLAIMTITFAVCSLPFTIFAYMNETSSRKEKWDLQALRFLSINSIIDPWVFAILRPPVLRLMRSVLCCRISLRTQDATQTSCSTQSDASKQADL
The experiment in a line: FLIPR calcium signal, HEK-293(EBNA) cells. The data set is classed as cell-based. The protocol:
as §1, §2, §3, §4

Another data set addresses T3, hEP3A/Gqi5 (Homo sapiens, UniProt P43115).
T3 construct: expressed in transfected cells; host or cells: HEK-293(EBNA) cells
T3 sequence (P43115 1-390): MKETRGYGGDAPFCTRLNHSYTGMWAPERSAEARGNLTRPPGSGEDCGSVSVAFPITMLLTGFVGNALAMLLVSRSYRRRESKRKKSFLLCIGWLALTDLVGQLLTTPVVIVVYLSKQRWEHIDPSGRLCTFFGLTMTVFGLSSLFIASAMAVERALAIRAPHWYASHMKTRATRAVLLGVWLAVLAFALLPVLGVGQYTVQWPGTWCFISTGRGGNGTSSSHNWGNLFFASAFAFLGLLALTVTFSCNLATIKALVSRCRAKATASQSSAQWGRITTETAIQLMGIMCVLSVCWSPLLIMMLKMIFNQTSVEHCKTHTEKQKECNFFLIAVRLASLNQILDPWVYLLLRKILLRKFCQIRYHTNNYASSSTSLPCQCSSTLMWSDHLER
The experiment in a line: FLIPR calcium signal, HEK-293(EBNA) cells. The data set is classed as cell-based. The protocol:
as §1, §2, §3, §4

Another data set deals with T4, hEP1 (Homo sapiens, UniProt P34995).
T4 construct: expressed in transfected cells; host or cells: HEK-293(EBNA) cells
T4 sequence (P34995 1-402): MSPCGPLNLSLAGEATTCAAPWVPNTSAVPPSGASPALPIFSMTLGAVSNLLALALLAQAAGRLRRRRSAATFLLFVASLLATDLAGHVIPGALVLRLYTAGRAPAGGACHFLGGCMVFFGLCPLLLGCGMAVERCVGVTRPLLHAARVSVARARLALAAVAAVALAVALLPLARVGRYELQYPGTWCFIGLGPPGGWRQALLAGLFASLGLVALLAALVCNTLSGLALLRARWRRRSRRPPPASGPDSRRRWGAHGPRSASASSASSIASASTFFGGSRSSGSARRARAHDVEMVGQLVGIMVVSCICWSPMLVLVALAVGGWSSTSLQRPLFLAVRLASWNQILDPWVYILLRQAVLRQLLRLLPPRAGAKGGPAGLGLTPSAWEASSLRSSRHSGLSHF
The experiment in a line: FLIPR calcium signal, HEK-293(EBNA) cells. The data set is classed as cell-based. The protocol:
as §1, §2, §3, §4

The target of the next data set is T5, hDP/Gqs5 (Homo sapiens, UniProt Q13258).
T5 construct: expressed in transfected cells; host or cells: HEK-293(EBNA) cells
T5 sequence (Q13258 1-359): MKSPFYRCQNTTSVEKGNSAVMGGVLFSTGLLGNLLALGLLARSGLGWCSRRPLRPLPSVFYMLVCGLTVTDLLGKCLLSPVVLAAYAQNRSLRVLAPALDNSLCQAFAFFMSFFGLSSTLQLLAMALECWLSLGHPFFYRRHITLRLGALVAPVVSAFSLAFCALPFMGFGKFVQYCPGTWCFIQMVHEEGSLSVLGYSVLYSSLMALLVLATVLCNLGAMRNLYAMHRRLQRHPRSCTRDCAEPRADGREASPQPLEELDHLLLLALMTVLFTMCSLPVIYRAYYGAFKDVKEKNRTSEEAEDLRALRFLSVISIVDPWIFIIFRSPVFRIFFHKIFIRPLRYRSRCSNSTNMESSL
The experiment in a line: FLIPR calcium signal, HEK-293(EBNA) cells. The data set is classed as cell-based. Here is the method: as §1, §2, §3, §4

Data set [1] relates to normotensive dogs. The experiment in a line: Ocular surface hyperemia (OSH) in normotensive dogs. The data set is classed as in vivo, dog. Also noted: maximum OSH score: scale not given here. The settings on record: 0.1%, dosing once daily for 5 days. Here is the method: (§5) (Z)-7-[(1R,2S,3R,5R)-5-Chloro-2-(3,5-dichloro-phenoxymethyl)-3-hydroxy-cyclopentyl]-hept-5-enoic acid (15b) was tested at multiple concentrations in normotensive dogs, dosing once daily for 5 days. At 0.05%, the maximum IOP decrease from baseline was 4.3 mmHg (30%) at 6 h; the maximum OSH score was 0.6 at 6 h. […] This compound was also tested in laser-induced hypertensive monkeys, using one single day dose. At 0.1%, the maximum IOP decrease from baseline was 6 mmHg (19%) at 6 h.
(§6) (Z)-7-[(1R,2S,3R,5R)-5-Chloro-2-(3,5-dichloro-phenoxymethyl)-3-hydroxy-cyclopentyl]-hept-5-enoic acid isopropyl ester (42b) was tested in normotensive dogs at 0.05%, dosing once daily for 5 days. The maximum intraocular pressure (IOP) decrease from baseline was 3 mmHg (19%) at 6 h; the maximum ocular surface hyperemia (OSH) score was 0.6 at 74 h. This compound was also tested in laser-induced hypertensive monkeys, using one single day dose. At 0.01%, the maximum IOP decrease from baseline was 6 mmHg (16%) at 6 h.

Data set [2] relates to laser-induced hypertensive monkeys. The experiment in a line: Intraocular pressure (IOP) in laser-induced hypertensive monkeys. The data set is classed as in vivo, monkey. The note with it: Primates, topical, 0.1%, one single day dose, read-out: maximum IOP decrease from baseline (percent). Here is the method:
as §5, §6

The subject of data set [3] is normotensive dogs. The experiment in a line: Intraocular pressure (IOP) in normotensive dogs. The data set is classed as in vivo, dog. The settings on record: Canis lupus familiaris, topical, 120 h, 0.1%, dosing once daily for 5 days, read-out: maximum IOP decrease from baseline (percent). The protocol:
as §5, §6

Where [4] appears, read: Table 1, first part, triplicate, read-out: functional data (EC50) hEP4.
[5] abbreviates: Table 1, second part, read-out: hEP4 flipr EC50.
Where [6] appears, read: Table 1, first part, triplicate, read-out: functional data (EC50) hEP2.
[7] abbreviates: Table 1, second part, read-out: hEP2 flipr EC50.
The mark [8] stands for this setting: Table 1, second part, quantity not given, values match functional data (EC50) of first part, read-out: Other Receptors hEP3.

T1 sequence (P35408 whole entry): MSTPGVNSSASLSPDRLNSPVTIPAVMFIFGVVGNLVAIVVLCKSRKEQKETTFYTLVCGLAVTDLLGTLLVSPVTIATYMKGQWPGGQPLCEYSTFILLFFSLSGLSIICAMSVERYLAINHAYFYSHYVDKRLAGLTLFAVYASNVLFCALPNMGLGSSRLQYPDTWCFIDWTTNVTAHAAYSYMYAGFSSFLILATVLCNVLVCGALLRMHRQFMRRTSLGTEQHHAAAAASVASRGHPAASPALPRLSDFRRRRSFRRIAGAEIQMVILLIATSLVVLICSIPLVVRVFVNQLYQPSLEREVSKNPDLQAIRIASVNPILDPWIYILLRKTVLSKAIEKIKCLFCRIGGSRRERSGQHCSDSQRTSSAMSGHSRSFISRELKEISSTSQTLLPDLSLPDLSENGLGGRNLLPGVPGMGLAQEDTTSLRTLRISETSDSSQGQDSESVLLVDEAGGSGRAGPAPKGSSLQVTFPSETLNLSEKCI

On to `COC(=O)CCC/C=C\C[C@H]1C(=O)C=C[C@@H]1COc1ccccc1` [Example 1, (Z)-7-((1R,5S)-2-Oxo-5-phenoxymethyl-cyclopent-3-enyl)-hept-5-enoic acid methyl ester], for which the EC50 at hEP4/Gqs5 (setting [4]), at hEP4/Gqs5 (setting [5]), at hEP2/Gqs5 (setting [6]) and at hEP2/Gqs5 (setting [7]) was greater than 10 µM in each case.
`COC(=O)CCC/C=C\C[C@H]1C(=O)C[C@@H](O)[C@@H]1COc1ccccc1` [Example 2, (Z)-7-((1R,2S,3R)-3-Hydroxy-5-oxo-2-phenoxymethyl-cyclopentyl)-hept-5-enoic acid methyl ester]: the EC50 at hEP4/Gqs5 (setting [4]) and at hEP4/Gqs5 (setting [5]) was greater than 10 µM in each case.
As for `COC(=O)CCCCCC[C@H]1C(=O)CC[C@@H]1COc1ccccc1` [Example 5, 7-((1R,5S)-2-Oxo-5-phenoxymethyl-cyclopentyl)-heptanoic acid methyl ester], the EC50 at hEP4/Gqs5 (setting [4]), on hEP4/Gqs5 (setting [5]), at hEP2/Gqs5 (setting [6]) and at hEP2/Gqs5 (setting [7]) was greater than 10 µM each time.
Consider `COC(=O)CCC/C=C\C[C@@H]1[C@@H](COc2ccccc2)[C@H](O)C[C@H]1Cl` [Example 7, (Z)-7-((1R,2S,3R,5R)-5-Chloro-3-hydroxy-2-phenoxymethyl-cyclopentyl)-hept-5-enoic acid methyl ester], for which the EC50 at hEP4/Gqs5 (setting [4]), on hEP4/Gqs5 (setting [5]), on hEP2/Gqs5 (setting [6]) and at hEP2/Gqs5 (setting [7]) was greater than 10 µM in each case.
Take `COC(=O)CCCCCC[C@@H]1[C@@H](COc2ccccc2)[C@H](O)C[C@H]1Cl` [Example 9, 7-((1R,2S,3R,5R)-5-Chloro-3-hydroxy-2-phenoxymethyl-cyclopentyl)-heptanoic acid methyl ester]: the EC50 on hEP4/Gqs5 (setting [4]) was 3.71 µM; at hEP2/Gqs5 (setting [6]) it was greater than 10 µM; at hEP2/Gqs5 (setting [7]) it was greater than 10 µM.
`COC(=O)CCCCCC[C@@H]1[C@@H](COc2cc(Cl)cc(Cl)c2)[C@H](O)C[C@H]1Cl` [Example 13, 7-[(1R,2S,3R,5R)-5-Chloro-2-(3,5-dichloro-phenoxymethyl)-3-hydroxy-cyclopentyl]-heptanoic acid methyl ester]: the EC50 on hEP4/Gqs5 (setting [4]) was greater than 10 µM; at hEP4/Gqs5 (setting [5]), greater than 10 µM; at hEP3A/Gqi5 (Table 1, first part, data represents a single experiment, read-out: functional data (EC50) hEP3A*), greater than 10 µM; at hEP3A/Gqi5 (setting [8]) it was greater than 10 µM; on hEP1 (Table 1, first part, triplicate, read-out: functional data (EC50) hEP1) it was greater than 10 µM; at hEP1 (Table 1, second part, quantity not given, values match functional data (EC50) of first part, read-out: Other Receptors hEP1), greater than 10 µM. The EC50 on hEP2/Gqs5 (setting [6]) was 1.66 µM; on hDP/Gqs5 (Table 1, first part, triplicate, read-out: functional data (EC50) hDP) it was greater than 10 µM; on hDP/Gqs5 (Table 1, second part, quantity not given, values match functional data (EC50) of first part, read-out: Other Receptors hDP) it was greater than 10 µM.
Turning to `O=C(O)CCC/C=C\C[C@@H]1[C@@H](COc2cc(C(F)(F)F)cc(C(F)(F)F)c2)[C@H](O)C[C@H]1Cl` [Example 15, (Z)-7-[(1R,2S,3R,5R)-2-(3,5-Bis-trifluoromethyl-phenoxymethyl)-5-chloro-3-hydroxy-cyclopentyl]-hept-5-enoic acid], in the data set with normotensive dogs [1], the “maximum OSH score” value was found to be 0.9 and the “time of maximum OSH score” value is 52 h. Moreover, the inhibition in vivo at 0.1 % in data set [2] was 30%. Also, the inhibition in vivo at 0.1 % with normotensive dogs [3] is 35%.
As for `O=C(O)CCC/C=C\C[C@@H]1[C@@H](COc2cccc3ccccc23)[C@H](O)C[C@H]1Cl` [Example 19, (Z)-7-[(1R,2S,3R,5R)-5-Chloro-3-hydroxy-2-(naphthalen-1-yloxymethyl)-cyclopentyl]-hept-5-enoic acid], in the data set with normotensive dogs [1], the “maximum OSH score” value is 0.8 and the “time of maximum OSH score” value came out at 54 h. In data set [2], the inhibition in vivo at 0.1 % was found to be 31%. The inhibition in vivo at 0.1 % with normotensive dogs [3] was determined as 41%.
With `O=C(O)CCC/C=C\C[C@@H]1[C@@H](COc2cccc(C(F)(F)F)c2)[C@H](O)C[C@H]1Cl` [Example 24, (Z)-7-[(1R,2S,3R,5R)-5-Chloro-3-hydroxy-2-(3-trifluoromethyl-phenoxymethyl)-cyclopentyl]-hept-5-enoic acid], in the data set with normotensive dogs [1], the “maximum OSH score” value worked out at 0.5 and the “time of maximum OSH score” value was 6 h. Also, the inhibition in vivo at 0.1 % in data set [2] amounted to 28%. Besides, in the data set with normotensive dogs [3], the inhibition in vivo at 0.1 % turned out to be 16%.
Regarding `Cc1cc(C)cc(OC[C@@H]2[C@@H](C/C=C\CCCC(=O)O)[C@H](Cl)C[C@H]2O)c1` [Example 36, (Z)-7-[(1R,2S,3R,5R)-5-Chloro-2-(3,5-dimethyl-phenoxymethyl)-3-hydroxy-cyclopentyl]-hept-5-enoic acid], the “maximum OSH score” value in the data set with normotensive dogs [1] worked out at 1.2. In the data set on normotensive dogs [1], the “time of maximum OSH score” value is 28 h. The values for the inhibition in vivo at 0.1 % (in data set [2]; in the data set on normotensive dogs [3]) were 25% and 46%, respectively.
Regarding `O=C(O)CCC/C=C\C[C@@H]1[C@@H](COc2cc(C(F)(F)F)cc(Cl)c2F)[C@H](O)C[C@H]1Cl` [Example 41, (Z)-7-[(1R,2S,3R,5R)-5-Chloro-2-(3-chloro-2-fluoro-5-trifluoromethyl-phenoxymethyl)-3-hydroxy-cyclopentyl]-hept-5-enoic acid], the EC50 at hEP3A/Gqi5 (setting [8]) amounted to 1.64 µM.
